From the OligoGym collection come the findings set out here.

Oligonucleotides are written 5' to 3', each unit as a sugar letter and its base; * is a phosphorothioate linkage, no mark a phosphodiester; rarer units and linkages stand in square brackets, end groups in braces. Plain capitals give the bases only. d = 2'-deoxy (DNA); r = 2'-OH (RNA)
Further: test concentration or dose not given here.

One series has as its target UBE2G1. As to the kind of experiment: reporter assay of Huesken 2005. Particulars: siRNA. (In general: A reporter such as luciferase makes a cellular process visible.)
Consider “sense rArGrUrGrUrCrArUrUrUrCrUrArUrGrCrUrGrGdTdT / antisense rCrCrArGrCrArUrArGrArArArUrGrArCrArCrUdAdA”, for which the normalised inhibition (eCFP-eYFP dual reporter) was 47.6%.
As for “sense rArUrArArGrUrArUrGrGrUrUrArUrGrArArArAdTdT / antisense rUrUrUrUrCrArUrArArCrCrArUrArCrUrUrArUdCdT”, the normalised inhibition (eCFP-eYFP dual reporter) came to 69.3%.
As for “sense rUrCrUrGrCrArGrGrUrUrUrArArUrArGrArUrGdTdT / antisense rCrArUrCrUrArUrUrArArArCrCrUrGrCrArGrAdAdA”, the normalised inhibition (eCFP-eYFP dual reporter) came to 60.6%.
Same read-out and setting: under “sense rArUrGrUrUrGrArUrGrCrUrGrCrGrArArArGrAdTdT / antisense rUrCrUrUrUrCrGrCrArGrCrArUrCrArArCrArUdTdA” stands 104%; under “sense rCrCrArCrArCrUrGrUrGrGrArArArCrCrArUrCdTdT / antisense rGrArUrGrGrUrUrUrCrCrArCrArGrUrGrUrGrGdAdT”, 86.1%; under “sense rUrArCrCrGrArUrGrGrGrArArGrUrCrCrUrUrAdTdT / antisense rUrArArGrGrArCrUrUrCrCrCrArUrCrGrGrUrAdGdA”, 93.1%.
On the same count and under the same terms, under “sense rArArGrCrCrArGrArGrGrArArCrGrCrUrGrGrCdTdT / antisense rGrCrCrArGrCrGrUrUrCrCrUrCrUrGrGrCrUrUdTdT” stands 35.9%.
“sense rGrArUrUrArUrCrCrCrCrUrCrCrGrArCrCrUrCdTdT / antisense rGrArGrGrUrCrGrGrArGrGrGrGrArUrArArUrCdTdT”: the normalised inhibition (eCFP-eYFP dual reporter) is 84.7%.
Turning to “sense rGrArUrArArGrUrArUrGrGrUrUrArUrGrArArAdTdT / antisense rUrUrUrCrArUrArArCrCrArUrArCrUrUrArUrCdTdT”, the normalised inhibition (eCFP-eYFP dual reporter) is 87.7%.
As for “sense rUrUrUrCrUrGrCrArGrGrUrUrUrArArUrArGrAdTdT / antisense rUrCrUrArUrUrArArArCrCrUrGrCrArGrArArAdAdG”, the normalised inhibition (eCFP-eYFP dual reporter) is 51.7%.
With “sense rArGrArCrCrCrUrArArUrGrGrArGrArCrUrCrAdTdT / antisense rUrGrArGrUrCrUrCrCrArUrUrArGrGrGrUrCrUdGdC”, the normalised inhibition (eCFP-eYFP dual reporter) worked out at 89.8%.
Regarding “sense rCrUrCrCrCrUrArUrCrCrArCrArCrUrGrUrGrGdTdT / antisense rCrCrArCrArGrUrGrUrGrGrArUrArGrGrGrArGdCdC”, the normalised inhibition (eCFP-eYFP dual reporter) is 62.9%.
For “sense rUrArUrGrGrUrUrArUrGrArArArArGrCrCrArGdTdT / antisense rCrUrGrGrCrUrUrUrUrCrArUrArArCrCrArUrAdCdT”, the normalised inhibition (eCFP-eYFP dual reporter) stood at 31.8%.
Take “sense rArGrArCrUrCrArCrCrUrGrCrUrArArUrGrUrUdTdT / antisense rArArCrArUrUrArGrCrArGrGrUrGrArGrUrCrUdCdC”: the normalised inhibition (eCFP-eYFP dual reporter) stood at 81.1%.
Consider “sense rCrCrUrArArArArUrGrArArArUrUrCrArUrUrAdTdT / antisense rUrArArUrGrArArUrUrUrCrArUrUrUrUrArGrGdAdG”, for which the normalised inhibition (eCFP-eYFP dual reporter) came to 69.6%.
Same read-out and setting: the value for “sense rArArArGrUrUrGrCrCrCrGrCrUrGrUrGrUrArAdTdT / antisense rUrUrArCrArCrArGrCrGrGrGrCrArArCrUrUrUdTdC” was 93.9%; that for “sense rArUrCrCrArGrUrGrGrArArGrGrCrUrUrUrUrCdTdT / antisense rGrArArArArGrCrCrUrUrCrCrArCrUrGrGrArUdTdT” was 65.4%.
Consider “sense rCrCrCrUrCrCrGrArCrCrUrCrCrUrArArArArUdTdT / antisense rArUrUrUrUrArGrGrArGrGrUrCrGrGrArGrGrGdGdA”, for which the normalised inhibition (eCFP-eYFP dual reporter) was 62.4%.
In the case of “sense rUrGrCrUrGrCrGrArArArGrArArUrGrGrArGrGdTdT / antisense rCrCrUrCrCrArUrUrCrUrUrUrCrGrCrArGrCrAdTdC”, the normalised inhibition (eCFP-eYFP dual reporter) came out at 34.4%.
Turning to “sense rCrUrArArUrGrGrArGrArCrUrCrArCrCrUrGrCdTdT / antisense rGrCrArGrGrUrGrArGrUrCrUrCrCrArUrUrArGdGdG”, the normalised inhibition (eCFP-eYFP dual reporter) is 71.9%.
As for “sense rGrArUrArCrArCrUrUrUrArUrGrArArGrGrUrGdTdT / antisense rCrArCrCrUrUrCrArUrArArArGrUrGrUrArUrCdTdG”, the normalised inhibition (eCFP-eYFP dual reporter) was 66%.
For “sense rCrArGrArGrGrArArCrGrCrUrGrGrCrUrCrCrCdTdT / antisense rGrGrGrArGrCrCrArGrCrGrUrUrCrCrUrCrUrGdGdC”, the normalised inhibition (eCFP-eYFP dual reporter) stood at 42.5%.
Same read-out and setting: under “sense rUrGrArUrUrArGrUrGrUrCrArUrUrUrCrUrArUdTdT / antisense rArUrArGrArArArUrGrArCrArCrUrArArUrCrAdTdG” stands 78.5%; under “sense rArGrArUrUrArUrCrCrCrCrUrCrCrGrArCrCrUdTdT / antisense rArGrGrUrCrGrGrArGrGrGrGrArUrArArUrCrUdTdT”, 84.2%; under “sense rArArCrCrArUrCrArUrGrArUrUrArGrUrGrUrCdTdT / antisense rGrArCrArCrUrArArUrCrArUrGrArUrGrGrUrUdTdC”, 65.4%.
On to “sense rCrArGrGrUrUrUrArArUrArGrArUrGrArCrArAdTdT / antisense rUrUrGrUrCrArUrCrUrArUrUrArArArCrCrUrGdCdA”, for which the normalised inhibition (eCFP-eYFP dual reporter) amounted to 97.5%.
Regarding “sense rArUrGrArCrArArUrGrArUrCrUrCrUrArCrCrGdTdT / antisense rCrGrGrUrArGrArGrArUrCrArUrUrGrUrCrArUdCdT”, the normalised inhibition (eCFP-eYFP dual reporter) is 40.5%.
Regarding “sense rUrGrArArArArGrCrCrArGrArGrGrArArCrGrCdTdT / antisense rGrCrGrUrUrCrCrUrCrUrGrGrCrUrUrUrUrCrAdTdA”, the normalised inhibition (eCFP-eYFP dual reporter) worked out at 35.9%.
On to “sense rGrCrUrGrGrCrUrCrCrCrUrArUrCrCrArCrArCdTdT / antisense rGrUrGrUrGrGrArUrArGrGrGrArGrCrCrArGrCdGdT”, for which the normalised inhibition (eCFP-eYFP dual reporter) was determined as 64%.
Still for that read-out and setting: under “sense rGrGrCrUrUrUrUrCrUrGrCrArGrGrUrUrUrArAdTdT / antisense rUrUrArArArCrCrUrGrCrArGrArArArArGrCrCdTdT” stands 83.3%; under “sense rArArUrGrUrUrGrArUrGrCrUrGrCrGrArArArGdTdT / antisense rCrUrUrUrCrGrCrArGrCrArUrCrArArCrArUrUdAdG”, 93.5%.
With “sense rUrGrGrArGrArArUrUrUrArArArArGrArArArAdTdT / antisense rUrUrUrUrCrUrUrUrUrArArArUrUrCrUrCrCrAdTdT”, the normalised inhibition (eCFP-eYFP dual reporter) amounted to 74.2%.
As for “sense rUrUrArGrUrGrUrCrArUrUrUrCrUrArUrGrCrUdTdT / antisense rArGrCrArUrArGrArArArUrGrArCrArCrUrArAdTdC”, the normalised inhibition (eCFP-eYFP dual reporter) was determined as 54%.
The same measure, in the same setting: under “sense rArArArArGrCrCrArGrArGrGrArArCrGrCrUrGdTdT / antisense rCrArGrCrGrUrUrCrCrUrCrUrGrGrCrUrUrUrUdCdA” stands 32.6%.
On to “sense rUrCrArUrGrArGrCrCrUrGrGrGrGrArArGrArUdTdT / antisense rArUrCrUrUrCrCrCrCrArGrGrCrUrCrArUrGrAdAdG”, for which the normalised inhibition (eCFP-eYFP dual reporter) came to 76.4%.
In the case of “sense rGrArArGrUrCrCrUrUrArUrUrArUrUrGrGrCrCdTdT / antisense rGrGrCrCrArArUrArArUrArArGrGrArCrUrUrCdCdC”, the normalised inhibition (eCFP-eYFP dual reporter) worked out at 87.6%.
Still for that read-out and setting: under “sense rArGrCrCrArGrArGrGrArArCrGrCrUrGrGrCrUdTdT / antisense rArGrCrCrArGrCrGrUrUrCrCrUrCrUrGrGrCrUdTdT” stands 37.8%.
Still for that read-out and setting: under “sense rArGrArUrArGrArArArUrGrGrArGrArArUrUrUdTdT / antisense rArArArUrUrCrUrCrCrArUrUrUrCrUrArUrCrUdTdC” stands 102%; under “sense rArArGrUrUrGrCrCrCrGrCrUrGrUrGrUrArArGdTdT / antisense rCrUrUrArCrArCrArGrCrGrGrGrCrArArCrUrUdTdT”, 79%; under “sense rGrCrCrCrUrCrCrArGrArUrArCrArCrUrUrUrAdTdT / antisense rUrArArArGrUrGrUrArUrCrUrGrGrArGrGrGrCdCdA”, 75.2%.
Consider “sense rGrArCrArArUrGrArUrCrUrCrUrArCrCrGrArUdTdT / antisense rArUrCrGrGrUrArGrArGrArUrCrArUrUrGrUrCdAdT”, for which the normalised inhibition (eCFP-eYFP dual reporter) came to 103%.
Regarding “sense rCrUrGrGrGrGrArArGrArUrArArGrUrArUrGrGdTdT / antisense rCrCrArUrArCrUrUrArUrCrUrUrCrCrCrCrArGdGdC”, the normalised inhibition (eCFP-eYFP dual reporter) is 55%.
For “sense rUrCrUrGrGrCrArCrCrCrArArArUrGrUrUrGrAdTdT / antisense rUrCrArArCrArUrUrUrGrGrGrUrGrCrCrArGrAdTdT”, the normalised inhibition (eCFP-eYFP dual reporter) turned out to be 73.4%.

Another series addresses UBE2E3. In words: reporter assay of Huesken 2005. Particulars: siRNA.
“sense rCrCrUrCrCrUrCrCrUrArArUrUrGrCrArGrUrGdTdT / antisense rCrArCrUrGrCrArArUrUrArGrGrArGrGrArGrGdAdT”: the normalised inhibition (eCFP-eYFP dual reporter) is 62.6%.
For the substance “sense rGrGrArGrUrCrCrCrGrCrUrUrUrGrArCrUrArUdTdT / antisense rArUrArGrUrCrArArArGrCrGrGrGrArCrUrCrCdAdG”, the normalised inhibition (eCFP-eYFP dual reporter) is 69.2%.
As to “sense rArGrCrCrUrGrArArGrArArCrArArGrArGrGrAdTdT / antisense rUrCrCrUrCrUrUrGrUrUrCrUrUrCrArGrGrCrUdCdT”, the normalised inhibition (eCFP-eYFP dual reporter) came to 89%.
With “sense rUrUrUrUrGrArCrArGrArCrUrGrCrArArCrCrCdTdT / antisense rGrGrGrUrUrGrCrArGrUrCrUrGrUrCrArArArAdGdG”, the normalised inhibition (eCFP-eYFP dual reporter) came to 50.3%.
In the case of “sense rGrCrGrArGrArCrCrCrArGrCrCrGrCrUrCrCrAdTdT / antisense rUrGrGrArGrCrGrGrCrUrGrGrGrUrCrUrCrGrCdTdG”, the normalised inhibition (eCFP-eYFP dual reporter) is 69.2%.
For the substance “sense rArUrUrUrArArGrCrCrArCrCrArArArGrGrUrUdTdT / antisense rArArCrCrUrUrUrGrGrUrGrGrCrUrUrArArArUdGdG”, the normalised inhibition (eCFP-eYFP dual reporter) amounted to 64.2%.
